According to patent US20230348376A1 (TEIJIN PHARMA LIMITED, priority 2020, published 2023):

Assay: Evaluation of brain penetration in mice (blood and brain concentration at brain Cmax)
Assay type: in vivo, mouse
Conditions: 1 mg/kg single oral dose, C57BL/6J mice
How it was run: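 Male C57BL/6J mice (8 weeks, n=3) dosed orally once at 1 […] mg/kg; plasma and brain collected at 0.25, 0.5, 1, 2, 4 and 8 h. Compound extracted with acetonitrile from brain homogenate and plasma, quantified by LC/MS/MS.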

Concentration in blood (mean ± SD) at brain Cmax (n=3): 580 ± 107 nM
Concentration in brain (mean ± SD) at brain Cmax (n=3): 595 ± 23 pmol/g
Kp (male, C57BL/6J, mouse, brain/plasma, po, 1 mg/kg, read-out: Concentration in brain/in blood ratio at brain Cmax): 1.03
Compound: C[C@H](CCN1CCOCC1)[C@H]1CC[C@H]2/C(=C/C=C3C[C@@H](O)C[C@H](O)C3)CCC[C@]12C [Compound D023, (1R,3R)-5-(2-((1R,3aS,7aR,E)-7a-methyl-1-((R)-4-morpholinobutan-2-yl)octahydro-4H-inden-4-ylidene)ethylidene)cyclohexane-1,3-diol]
